Source: ChEMBL document CHEMBL3885881, “DrugMatrix”

Species on record: Rattus norvegicus
Test: DrugMatrix - Regimen: Daily Repeat
Format: toxicity, organism-based, Sprague-Dawley
Set-up: regimen Daily Repeat, gender Male, age 6-8 weeks
Details: in vivo, po, route oral GAVAGE, vehicle 100 % WATER; for ABSOLUTE BASOPHIL / ABSOLUTE EOSINOPHIL / ABSOLUTE LYMPHOCYTE / ABSOLUTE MONOCYTE / ABSOLUTE SEGMENTED NEUTROPHIL / BASOPHIL / EOSINOPHIL / ERYTHROCYTE COUNT / HEMATOCRIT / HEMOGLOBIN / LEUKOCYTE COUNT / LYMPHOCYTE / MEAN CORPUSCULAR HEMOGLOBIN / MEAN CORPUSCULAR HEMOGLOBIN CONCENTRATION / MEAN CORPUSCULAR VOLUME / MONOCYTE / NEUTROPHIL / NUCLEATED RED BLOOD CELLS / PLATELET COUNT: tissue Blood; for ALANINE AMINOTRANSFERASE / ALBUMIN / ALKALINE PHOSPHATASE / ASPARTATE AMINOTRANSFERASE / BLOOD UREA NITROGEN / CARBON DIOXIDE / CHLORIDE / CHOLESTEROL / CREATINE PHOSPHOKINASE / CREATININE / GLUCOSE / LACTATE DEHYDROGENASE / LIPASE / PHOSPHORUS / POTASSIUM / SODIUM / TOTAL BILIRUBIN / TOTAL PROTEIN / URIC ACID: tissue Plasma
[1] = 0 mg/kg, 72 h, dose level Control, time 3 day
[2] = 0 mg/kg, 120 h, dose level Control, time 5 day
[3] = 2 mg/kg, 72 h, dose level Low, time 3 day

For `CC(C)(C)c1ccc(C(=O)CCCN2CCC(OC(c3ccccc3)c3ccccc3)CC2)cc1` [EBASTINE], the “ABSOLUTE BASOPHIL” value [1] was 0 CELLS/uL, the “ABSOLUTE EOSINOPHIL” value [1] was 123.17 CELLS/uL and the “ABSOLUTE LYMPHOCYTE” value [1] was 12677.83 CELLS/uL. For the same molecule, the “ABSOLUTE MONOCYTE” value [1] was 66.17 CELLS/uL, the “ABSOLUTE SEGMENTED NEUTROPHIL” value [1] was 1149.5 CELLS/uL and the BASOPHIL [1] was 0%. The EOSINOPHIL [1] was 0.83%, the “ERYTHROCYTE COUNT” value [1] was 5.26 x10E6/uL and the HEMATOCRIT [1] was 33.07%. The HEMOGLOBIN [1] was 13.43 G/DL, the “LEUKOCYTE COUNT” value [1] was 14.02 x10E3/uL and the LYMPHOCYTE [1] was 90.17%. For the same molecule, the “MEAN CORPUSCULAR HEMOGLOBIN” value [1] was 25.62 pg, the “MEAN CORPUSCULAR HEMOGLOBIN CONCENTRATION” value [1] was 40.65 G/DL and the “MEAN CORPUSCULAR VOLUME” value [1] was 63 fL. The MONOCYTE [1] was 0.5%, the NEUTROPHIL [1] was 8.5% and the “NUCLEATED RED BLOOD CELLS” value [1] was 0.17 /100WBC. The “PLATELET COUNT” value [1] was 1142.83 x10E3/uL, the “ALANINE AMINOTRANSFERASE” value [1] was 45.17 u/L and the ALBUMIN [1] was 3.78 G/DL. For the same molecule, the “ALKALINE PHOSPHATASE” value [1] was 340.17 u/L, the “ASPARTATE AMINOTRANSFERASE” value [1] was 77.33 u/L and the “BLOOD UREA NITROGEN” value [1] was 14.67 mg/dL. The “CARBON DIOXIDE” value [1] was 28.67 mmol/L, the CHLORIDE [1] was 101.17 MEQ/L and the CHOLESTEROL [1] was 77.67 mg/dL. The “CREATINE PHOSPHOKINASE” value [1] was 263.67 u/L, the CREATININE [1] was 0.15 mg/dL and the GLUCOSE [1] was 169.33 mg/dL. The “LACTATE DEHYDROGENASE” value [1] was 230 u/L, the LIPASE [1] was 9.67 u/L and the PHOSPHORUS [1] was 11.8 mg/dL. For the same molecule, the POTASSIUM [1] was 5.91 MEQ/L, the SODIUM [1] was 142.88 MEQ/L and the “TOTAL BILIRUBIN” value [1] was 0.22 mg/dL. The “TOTAL PROTEIN” value [1] was 5.7 G/DL, the “URIC ACID” value [1] was 1.35 mg/dL and the “ABSOLUTE BASOPHIL” value [2] was 0 CELLS/uL. For the same molecule, the “ABSOLUTE EOSINOPHIL” value [2] was 125 CELLS/uL, the “ABSOLUTE LYMPHOCYTE” value [2] was 13809 CELLS/uL and the “ABSOLUTE MONOCYTE” value [2] was 351 CELLS/uL. For the same molecule, the “ABSOLUTE SEGMENTED NEUTROPHIL” value [2] was 1581.67 CELLS/uL, the BASOPHIL [2] was 0% and the EOSINOPHIL [2] was 0.67%. For the same molecule, the “ERYTHROCYTE COUNT” value [2] was 5.53 x10E6/uL, the HEMATOCRIT [2] was 34.83% and the HEMOGLOBIN [2] was 13.9 G/DL. For the same molecule, the “LEUKOCYTE COUNT” value [2] was 15.87 x10E3/uL, the LYMPHOCYTE [2] was 87.5% and the “MEAN CORPUSCULAR HEMOGLOBIN” value [2] was 25.25 pg. For the same molecule, the “MEAN CORPUSCULAR HEMOGLOBIN CONCENTRATION” value [2] was 40.08 G/DL, the “MEAN CORPUSCULAR VOLUME” value [2] was 63.05 fL and the MONOCYTE [2] was 2.17%. The NEUTROPHIL [2] was 9.67%, the “NUCLEATED RED BLOOD CELLS” value [2] was 0 /100WBC and the “PLATELET COUNT” value [2] was 1044 x10E3/uL. The “ALANINE AMINOTRANSFERASE” value [2] was 50.67 u/L, the ALBUMIN [2] was 4.33 G/DL and the “ALKALINE PHOSPHATASE” value [2] was 395 u/L. The “ASPARTATE AMINOTRANSFERASE” value [2] was 86 u/L, the “BLOOD UREA NITROGEN” value [2] was 15.33 mg/dL and the “CARBON DIOXIDE” value [2] was 29.33 mmol/L. The CHLORIDE [2] was 101.5 MEQ/L, the CHOLESTEROL [2] was 71.33 mg/dL and the “CREATINE PHOSPHOKINASE” value [2] was 323.17 u/L. For the same molecule, the CREATININE [2] was 0.18 mg/dL, the GLUCOSE [2] was 145.67 mg/dL and the “LACTATE DEHYDROGENASE” value [2] was 389.5 u/L. For the same molecule, the LIPASE [2] was 9.83 u/L, the PHOSPHORUS [2] was 11.35 mg/dL and the POTASSIUM [2] was 6.39 MEQ/L. The SODIUM [2] was 142.77 MEQ/L, the “TOTAL BILIRUBIN” value [2] was 0.18 mg/dL and the “TOTAL PROTEIN” value [2] was 6.1 G/DL. The “URIC ACID” value [2] was 1.52 mg/dL, the “ABSOLUTE BASOPHIL” value [3] was 0 CELLS/uL and the “ABSOLUTE EOSINOPHIL” value [3] was 62.33 CELLS/uL. The “ABSOLUTE LYMPHOCYTE” value [3] was 12860.33 CELLS/uL, the “ABSOLUTE MONOCYTE” value [3] was 62.33 CELLS/uL and the “ABSOLUTE SEGMENTED NEUTROPHIL” value [3] was 1348.33 CELLS/uL. The BASOPHIL [3] was 0%, the EOSINOPHIL [3] was 0.33% and the “ERYTHROCYTE COUNT” value [3] was 5.22 x10E6/uL. For the same molecule, the HEMATOCRIT [3] was 34.2%, the HEMOGLOBIN [3] was 13.67 G/DL and the “LEUKOCYTE COUNT” value [3] was 14.33 x10E3/uL. For the same molecule, the LYMPHOCYTE [3] was 89.67%, the “MEAN CORPUSCULAR HEMOGLOBIN” value [3] was 26.2 pg and the “MEAN CORPUSCULAR HEMOGLOBIN CONCENTRATION” value [3] was 40 G/DL. The “MEAN CORPUSCULAR VOLUME” value [3] was 65.5 fL, the MONOCYTE [3] was 0.33% and the NEUTROPHIL [3] was 9.67%. The “NUCLEATED RED BLOOD CELLS” value [3] was 0 /100WBC, the “PLATELET COUNT” value [3] was 1183.33 x10E3/uL and the “ALANINE AMINOTRANSFERASE” value [3] was 47.67 u/L. For the same molecule, the ALBUMIN [3] was 3.87 G/DL, the “ALKALINE PHOSPHATASE” value [3] was 322 u/L and the “ASPARTATE AMINOTRANSFERASE” value [3] was 75.33 u/L. The “BLOOD UREA NITROGEN” value [3] was 14.33 mg/dL, the “CARBON DIOXIDE” value [3] was 32.67 mmol/L and the CHLORIDE [3] was 99.67 MEQ/L. For the same molecule, the CHOLESTEROL [3] was 75.67 mg/dL, the “CREATINE PHOSPHOKINASE” value [3] was 258.67 u/L and the CREATININE [3] was 0.13 mg/dL. For the same molecule, the GLUCOSE [3] was 151 mg/dL, the “LACTATE DEHYDROGENASE” value [3] was 188 u/L and the LIPASE [3] was 10 u/L. It also gave a PHOSPHORUS [3] of 11.23 mg/dL, a POTASSIUM [3] of 6.55 MEQ/L and an SODIUM [3] of 141.57 MEQ/L. The “TOTAL BILIRUBIN” value [3] was 0.2 mg/dL, the “TOTAL PROTEIN” value [3] was 5.63 G/DL and the “URIC ACID” value [3] was 1.3 mg/dL.
